Entries after “also recorded” stand apart in the source; their conditions may differ. Blank lines part the entries; values can stand above or below the molecule they belong to.
Legend:
[1] = system: Ramos cells; test: Ramos cell proliferation, Cell-Titer-Glo; type: cell-based, human; conditions: 72 hours
Description: Ramos cells were suspended at 1×10^5 cells/mL in growth media, incubated with the relevant antibodies, including isotype controls, and other test agents and cultured for 72 hours at 37° C. Cell-Titer-Glo (Promega) was added to wells, mixed, and incubated at room temperature for 10 minutes. The plate was read on a GloMax Luminometer (Promega).

[2] = system: Ramos cells; test: Apoptosis of Ramos cells, Annexin V-FITC/PI, vs AMD3100; type: cell-based, human; conditions: 24 hours, antibody 10 μg/mL, AMD3100 6 μM
Description: Cells were stained with Annexin V-FITC and propidium iodide (A). The percent of cells positive for Annexin V only or both Annexin V and PI double positive was determined (B).
Cells were stained with Annexin V-FITC and propidium iodide (PI).

[3] = system: MOLP-8 cells; test: MOLP-8 MM xenograft in SCID mice; type: in vivo; conditions: for efficacy in MOLP8 tumors: lenalidomide 50 mg/kg, bortezomib 0.8 mg/kg, BMS-936564 10 mg/kg/dose
Description: In all the experiments, the mice were injected intraperitoneally on Days 0 and 7 with an IgG4 isotype control and a PBS vehicle control.

[4] = system: Bortezomib-resistant JJN-3R cells; test: JJN-3R MM xenograft in SCID mice; type: in vivo; conditions: lenalidomide 50 mg/kg/dose IP, bortezomib 0.8 mg/kg/dose IV
[5] = system: parental JJN-3 cells; test: JJN-3 MM xenograft in SCID mice; type: in vivo; conditions: bortezomib 0.8 mg/kg/dose IV, lenalidomide 50 mg/kg/dose IP
From the text: 5 million JJN-3 cells/mouse were implanted into SCID mice and the mice were randomized into groups of 8 when the tumor volume reached approximately 77 mm^3.

[6] = system: RPMI-8226 cells; test: RPMI-8226 MM xenograft in SCID mice; type: in vivo
Description: The mice were randomized (n=8) when the tumor volume reached approximately 20 mm^3, dosed on Days 0, 3, 7, 10 and 14 with MDX-1338 (10 mg/kg/dose) alone or in combination with 50 mg/kg lenalidomide or in combination with 0.8 mg/kg bortezomib.

[7] = system: OPM-2 cells; test: OPM-2 MM xenograft in SCID mice
From the text: OPM-2 cells (10 million) were implanted into SCID mice as described.

[8] = system: MM.1S cells; test: MM.1S MM xenograft in SCID mice; type: in vivo
[9] = target: T1, CXCR4 (Homo sapiens, UniProt P61073); test: Competition with FITC-labeled F9 for binding to CEM cells; conditions: 300 nM to 5 pM
T1 sequence (P61073 whole entry): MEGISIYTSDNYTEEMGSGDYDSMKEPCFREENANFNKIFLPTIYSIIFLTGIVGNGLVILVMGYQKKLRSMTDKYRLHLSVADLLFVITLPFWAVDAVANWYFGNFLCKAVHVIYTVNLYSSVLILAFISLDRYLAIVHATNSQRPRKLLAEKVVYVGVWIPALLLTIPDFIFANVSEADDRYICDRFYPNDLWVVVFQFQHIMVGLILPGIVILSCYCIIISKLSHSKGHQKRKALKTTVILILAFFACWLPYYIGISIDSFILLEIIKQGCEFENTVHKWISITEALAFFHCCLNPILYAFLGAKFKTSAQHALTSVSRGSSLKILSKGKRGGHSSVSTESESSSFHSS
Description: To determine the ability of a panel of anti-CXCR4 antibodies to compete for binding to CXCR4, competition studies were performed. […] The mixture of antibodies was then added to CEM cells and allowed to bind.

[10] = target: T1, CXCR4; test: 125I-CXCL12 binding competition on CEM cells (first experiment); conditions: 100 pM 125I-CXCL12
Description: A comparison of anti-CXCR4 antibodies on blocking CXCL12 binding to CEM cells was performed by a standard radio-labeled ligand binding assay. The anti-CXCR4 antibodies were serially diluted 1:3 to yield a range of concentrations from 300 nM to 137 pM. […] An irrelevant antibody of the same isotype was used as a negative control.

[11] = target: T1, CXCR4; test: CXCL12-induced calcium flux in CEM cells (Calcium 3 dye); type: cell-based; conditions: 50 nM CXCL12α
From the text: As a negative control, an irrelevant antibody of the same isotype was used.

[12] = target: T1, CXCR4; test: CXCL12-induced migration of CEM cells (first experiment); type: cell-based; conditions: 5 nM CXCL12α
Description: The anti-CXCR4 antibodies were titrated in a 1:3 serial dilution series resulting in a concentration range from 100 nM to 1 pM and allowed to bind to labeled CEM cells at a density of 10 million cells per ml. As a negative control, an irrelevant antibody of the same isotype was used. Recombinant human CXCL12α (Peprotech) was added at 5 nM at 30 μl per well to the lower chamber of a 96 well Neuroprobe migration plate with 5.7 mm diameter filters per well. Each well contains […]. Labeled CEM cells with and without antibody were loaded onto the filters at a concentration of 0.5 million cells per well in a volume of 50 μl. The migration plate was incubated at 37° C. for 2.5 hours. […] The chemiluminescent signal was recorded on a Fusion instrument.

[13] = system: human umbilical vein endothelial cells (HuVEC); test: HuVEC capillary tube formation; type: cell-based; conditions: HuVEC on MATRIGEL, 18 hours
Description: In this example, the ability of the anti-CXCR4 human antibodies to inhibit capillary tube formation by human umbilical vein endothelial cells (HuVEC) was examined […]® was diluted 1:1 with RPMI and plated onto the wells of a 96 well plate and allowed to polymerize for 30 minutes at 37° C. HuVEC (from Cambrex, cat. # CC-2519) at 80% confluence were trypsinized and resuspended at 1×10^6 cells per ml in RPMI with 0.5% FBS. Antibodies were well mixed with HuVEC at a final concentration of 3 mg/ml and allowed to incubate at room temperature for 30 minutes. An irrelevant antibody of the same isotype or media alone was used as a negative control. As a positive control of inhibition of tube formation, a mouse anti-human αvβ3 (CD51/CD61) antibody (R&D Systems, cat. # MAB3050) was used. HuVEC with or without antibodies were plated onto the […]®-coated wells and incubated at 37° C. for 18 hours.
The HuVEC incubated with media alone or with the isotype-matched control antibody formed capillary tubes resulting in the appearance of connected cells across the plate with 3-5 points of connection or branch points per cell. […] The cells appeared isolated and with few or no branch points.

[14] = system: Ramos tumor cells; test: Ramos cell proliferation, 3H-thymidine incorporation; type: cell-based, human; conditions: 10^−3 to 300 nM; 72 hours
Description: In this example, the ability of the anti-CXCR4 human antibodies to inhibit proliferation of Ramos tumor cells (a human Burkitt's lymphoma cell line) in vitro was examined. […] The cells were incubated with antibody for 72 hours, with ^3H-thymidine being added for the final 24 hours of incubation to allow for monitoring of cell proliferation. Following the incubation, incorporation of ^3H-thymidine by the cells was measured by standard techniques. The results are shown in the graph of FIG. 11A.

Molecule: c1cc(CN2CCCNCCNCCCNCC2)ccc1CN1CCCNCCNCCCNCC1 [AMD3100, Plerixafor]
inhibition of Ramos cell proliferation [1]: did not inhibit proliferation
percent of cells Annexin V/PI double positive [2]: 2.7%
percent of cells positive for Annexin V only [2]: 2.0%

Molecule: CC[C@@]1(O)C(=O)OCc2c1cc1n(c2=O)Cc2cc3ccccc3nc2-1 [Camptothecin]
inhibition of Ramos cell proliferation ([1]; 10 μM): completely inhibited cell proliferation

Molecule: CC(C)C[C@H](NC(=O)[C@H](Cc1ccccc1)NC(=O)c1cnccn1)B(O)O [bortezomib, reference compound]
efficacy in MOLP8 tumors [3]: relatively resistant
tumor growth inhibition [4]: Neither lenalidomide nor bortezomib alone inhibited tumor growth
efficacy in inhibiting tumor growth [5]: marginal efficacy
mean tumor growth inhibition ([6]; Day 44, compared to isotype control, MDX-1338 10 mg/kg, lenalidomide 50 mg/kg, bortezomib 0.8 mg/kg): 70%
median tumor growth inhibition ([7]; Day 24, compared to vehicle control, MDX-1338 10 mg/kg/dose IP, bortezomib 0.8 mg/kg/dose IV): 75%

Molecule: Nc1cccc2c1CN(C1CCC(=O)NC1=O)C2=O (stereo not shown) [lenalidomide, reference compound]
tumor growth inhibition ([3]; MOLP8): alone = 35%
efficacy in MOLP8 tumors [3]: relatively resistant
tumor growth inhibition [4]: Neither lenalidomide nor bortezomib alone inhibited tumor growth
efficacy in inhibiting tumor growth [5]: ineffective in inhibiting tumor growth
efficacy in RPMI-8226 model ([6]; 50 mg/kg): marginal efficacy
mean tumor growth inhibition ([8]; Day 25, compared to isotype control, MDX-1338 10 mg/kg/dose, lenalidomide 100 mg/kg): 70%
tumor growth inhibition ([8]; MM.1S): REVLIMID ® = 70%
efficacy in OPM-2 model ([7]; lenalidomide 50 mg/kg/dose IP): minimal efficacy

blockade of CXCL12 binding to CXCR4 [10]: did not effectively block CXCL12 binding
inhibition of CXCL12α-induced calcium flux [11]: did not significantly inhibit
inhibition of CXCL12α-induced migration [12]: did not significantly inhibit migration
B1: E2: human anti-CXCR4 monoclonal antibody; VH SEQ ID NO: 28, VL SEQ ID NO: 32 (antibody, listed as Homo sapiens, V domains shown)
VH: EVQLVQSGGGLVQPGGSLRLSCAAAGFTFSSYSMNWVRQAPGKGLEWVSYISSRSRTIYYADSVKGRFTISRDNAKNSLYLQMNSLRDEDTAVYYCARDYGGQPPYHYYYGMDVWGQGTTVTVSS
VL: EIVLTQSPSSLSASVGDRVTITCRASQGISNWLAWYQQKPEKAPKSLIYAASSLQSGVPSRFSGSGSGTDFTLTISSLQPEDFATYYCQQYNSYPRTFGQGTKVEIK
ability to compete with F9 for binding to CEM cells [9]: able to compete with F9; also recorded: partial inhibition at high concentrations
inhibition of capillary tube formation [13]: did not inhibit capillary tube formation
inhibition of Ramos cell proliferation (3H-thymidine incorporation) [14]: able to inhibit Ramos cell proliferation

ability to compete with F9 for binding to CEM cells [9]: able to compete with F9
inhibition of CXCL12α-induced migration [12]: did not significantly inhibit migration
B2: D1: human anti-CXCR4 monoclonal antibody; VH SEQ ID NO: 27, VL SEQ ID NO: 31 (antibody, listed as Homo sapiens, V domains shown)
VH: EVQLVQSGGGLVQPGGSLRLSCAAAGFTFSSYSMNWVRQAPGKGLEWVSYISSRSKTIYYADSVKGRFTISRDNARNSLYLQMNSLRDEDTAVYYCARDYGGQPPYYYYYGMDVWGQGTTVTVSS
VL: VIWVTQSPSSLSASVGDRVTITCRTSQGISSWLAWYQQKPEKAPELLIYAASSLQSGVPSRFSGSGSGTDFTLTISSLQPEDFATYYCQQYNSYPRTFGQGTKVEIK
